Where “and” joins values, the source holds several entries; their conditions need not be identical. Identical values can stand only once.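 Test compounds were applied to cells in 96-well plates for 48 hours at 5 doses. GI50 is the concentration that inhibits growth by half. TGI marks complete inhibition of growth.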
Experiments:
Assay in all cases: growth of human tumour cells (NCI), 48 h
MDA-MB-435 = system: MDA-MB-435
BT-549 breast = system: BT-549 breast
DLD-1 colon = system: DLD-1 colon
RXF-631 renal = system: RXF-631 renal
LXFL 529 NSCLC = system: LXFL 529 NSCLC
DMS 273 small cell lung = system: DMS 273 small cell lung
DMS 114 small cell lung = system: DMS 114 small cell lung
XF 498 CNS = system: XF 498 CNS
MDA-N = system: MDA-N

## COc1c(N2CCN(CN3C(=O)C(=Nc4ccc(S(=O)(=O)Nc5ncccn5)cc4)c4ccccc43)C(C)C2)c(F)cc2c(=O)c(C(=O)O)cn(C3CC3)c12 (centres undefined)
MDA-MB-435
  GI50: > 50 µM
  TGI: > 50 µM
BT-549 breast
  GI50: 19.6 µM
  TGI: > 50 µM

## CC(=O)c1cc([N+](=O)[O-])ccc1OCC(=O)O
DLD-1 colon
  TGI: > 100 µM
RXF-631 renal
  TGI: > 100 µM
LXFL 529 NSCLC
  TGI: > 100 µM
DMS 273 small cell lung
  TGI: > 100 µM
DMS 114 small cell lung
  TGI: > 100 µM

## CN=S(=O)(c1ccccc1)c1ccccc1
DLD-1 colon
  TGI: > 100 µM
DMS 273 small cell lung
  TGI: > 100 µM
DMS 114 small cell lung
  TGI: > 100 µM
XF 498 CNS
  TGI: > 100 µM

## CC1C(=O)C(C)C(c2ccccc2)N(N=O)C1c1ccccc1 (centres undefined)
DLD-1 colon
  GI50: > 1000 µM
  TGI: > 1000 µM
LXFL 529 NSCLC
  TGI: > 1000 µM
MDA-MB-435
  TGI: 346 µM
DMS 273 small cell lung
  TGI: > 1000 µM
MDA-N
  TGI: 306 µM
XF 498 CNS
  GI50: 53.2 µM
  TGI: 73.8 µM and 214 µM

## O=NNc1nc(-c2cccnc2)nc2ccccc12
MDA-N
  TGI: > 100 µM
BT-549 breast
  TGI: > 100 µM

## Fc1cccc(COc2ccc(Nc3ncnc4cc(-c5ccc[nH]5)sc34)cc2Cl)c1
MDA-MB-435
  GI50: 6.11 µM
  TGI: > 25 µM
BT-549 breast
  GI50: 0.977 µM
  TGI: 14.9 µM

## Cc1cccc(C(C)C)c1NC(=O)C(=O)CC(=O)c1c(C)n([O-])c2ccccc2[n+]1=O
RXF-631 renal
  TGI: 67.4 µM
LXFL 529 NSCLC
  TGI: > 100 µM
DMS 273 small cell lung
  TGI: 99.2 µM
DMS 114 small cell lung
  TGI: 52.1 µM

## COc1cc(-c2cn(-c3ccc(Cl)cc3)c(C)c2C(=O)C(F)(F)F)cc(OC)c1OC
MDA-MB-435
  GI50: > 100 µM
  TGI: > 100 µM
BT-549 breast
  GI50: 46.8 µM
  TGI: > 100 µM

## CC(C)C1CC(O)O[C@@H]([C@@H](C)[C@H]2CC(=O)[C@@H]3[C@@H]4[C@@H](O)[C@H](O)[C@H]5[C@@H](O)[C@H](O)CC[C@]5(C)[C@H]4CC[C@]23C)C1 (some centres undefined)
DLD-1 colon
  TGI: > 100 µM
LXFL 529 NSCLC
  TGI: > 100 µM
DMS 273 small cell lung
  TGI: > 100 µM
XF 498 CNS
  TGI: 56 µM

## N#CC(C(=O)C(=O)NCCCNC(=O)C(=O)C(C#N)c1ccccc1)c1ccccc1 (centres undefined)
DLD-1 colon
  TGI: > 100 µM
LXFL 529 NSCLC
  TGI: > 100 µM
DMS 273 small cell lung
  TGI: > 100 µM
DMS 114 small cell lung
  TGI: > 100 µM

## COc1ccc(-c2cncn2-c2ccc(OC)cc2)cc1
MDA-MB-435
  GI50: 3.62 µM
  TGI: 14.1 µM
BT-549 breast
  GI50: 12.3 µM
  TGI: 32.5 µM

## O=c1cc(-c2ccccc2)c2cc3c(=O)ccoc3cc2o1
DLD-1 colon
  TGI: > 100 µM
DMS 273 small cell lung
  TGI: > 100 µM
DMS 114 small cell lung
  TGI: > 100 µM
XF 498 CNS
  TGI: > 100 µM

## CSc1nc2c(nc(N)n2C2OCC(O)C(O)C2O)c(=O)n1C (centres undefined)
DLD-1 colon
  TGI: > 100 µM
RXF-631 renal
  TGI: > 100 µM
LXFL 529 NSCLC
  TGI: > 100 µM
DMS 114 small cell lung
  TGI: > 100 µM
XF 498 CNS
  TGI: > 100 µM

## COc1cc(CNc2ccc(C(C)C)cc2)cc(OC)c1OC
DLD-1 colon
  TGI: 48.8 µM
LXFL 529 NSCLC
  TGI: 48.7 µM
DMS 273 small cell lung
  GI50: 13 µM
  TGI: 26.3 µM
DMS 114 small cell lung
  TGI: 48.7 µM
XF 498 CNS
  TGI: 59 µM

## OCc1ccc(-c2nn(Cc3ccccc3)c3ccccc23)o1
MDA-MB-435
  GI50: 17.2 µM and 18.7 µM
  TGI: 40.8 µM and 39.5 µM
BT-549 breast
  GI50: 17.3 µM and 22.7 µM
  TGI: 37.4 µM and 53 µM

## CC1=C(O)C(=O)C2C(=O)C1C(C)C2c1ccc(Cl)cc1 (centres undefined)
DLD-1 colon
  TGI: > 100 µM
RXF-631 renal
  TGI: > 100 µM
LXFL 529 NSCLC
  TGI: > 100 µM
DMS 273 small cell lung
  TGI: > 100 µM
XF 498 CNS
  TGI: > 100 µM

## O=C1C(Cl)=C(Nc2cccc(O)c2)C(=O)N1c1cc(Cl)c(Cl)cc1Cl
MDA-MB-435
  GI50: 22.7 µM
  TGI: 55.9 µM

## CC1S(=O)(=O)OCCOS1(=O)=O
DLD-1 colon
  TGI: > 100 µM
RXF-631 renal
  TGI: > 100 µM
LXFL 529 NSCLC
  TGI: > 100 µM
DMS 273 small cell lung
  TGI: > 100 µM
DMS 114 small cell lung
  TGI: > 100 µM

## COC(=O)CNC(=O)[C@@H](OC)[C@@H]1Cc2cc3cc(OC4CC(OC5CC(O)C(O)C(C)O5)C(O)C(C)O4)c(C)c(O)c3c(O)c2C(=O)[C@H]1OC1CC(OC2CC(OC3CC(C)(O)C(O)C(C)O3)C(O)C(C)O2)C(O)C(C)O1 (some centres undefined)
MDA-MB-435
  GI50: 0.166 µM
  TGI: 1.25 µM
BT-549 breast
  GI50: 0.114 µM
  TGI: 1.1 µM

## CCCCN(Cc1ccc(F)cc1)c1ccc(CO)c(Cl)c1
MDA-MB-435
  GI50: 17.6 µM
  TGI: 35.1 µM
BT-549 breast
  GI50: 19.1 µM
  TGI: 34.6 µM

## CC/C=C\C/C=C\C/C=C\CCCCCCCC(=O)OCC
DLD-1 colon
  TGI: > 100 µM
LXFL 529 NSCLC
  TGI: > 100 µM
DMS 114 small cell lung
  TGI: > 100 µM
XF 498 CNS
  TGI: > 100 µM

## C=C1C(=O)O[C@H]2[C@H]1CC/C(COC(=O)N1CCC[C@H]1C(=O)Nc1ccc(OC)c(C(N)=O)c1O)=C\CC[C@@]1(C)O[C@@H]21
MDA-MB-435
  GI50: 3.8 µM
  TGI: 15.9 µM
BT-549 breast
  GI50: 1.62 µM
  TGI: 5.12 µM

## Cn1ccnc1C(=O)/C=C/c1ccc(CC(=O)Nc2ccccc2)cc1
MDA-MB-435
  GI50: 4.3 µM
  TGI: 13.7 µM
BT-549 breast
  GI50: 2.95 µM
  TGI: 7.54 µM

## Cc1ccc(NC(=O)/C(=N\Nc2ccc([N+](=O)[O-])cc2[N+](=O)[O-])C2C(=O)NC(=O)NC2=O)cc1
DLD-1 colon
  TGI: > 100 µM
RXF-631 renal
  TGI: > 100 µM
LXFL 529 NSCLC
  TGI: > 100 µM
DMS 114 small cell lung
  TGI: > 100 µM

## C=C(C)C(=O)O[C@H]1[C@H]2[C@H](OC(=O)[C@H]2C)[C@H](O)[C@@H](C)[C@@H]2C=CC(=O)[C@]21C
MDA-MB-435
  TGI: 7.28 µM
MDA-N
  TGI: 7.68 µM
BT-549 breast
  TGI: 15.5 µM

## CCOC(=O)NN1C(=O)C(=P(c2ccccc2)(c2ccccc2)c2ccccc2)C(C(=O)OCC)=C1C
DLD-1 colon
  TGI: > 100 µM
RXF-631 renal
  TGI: > 100 µM
LXFL 529 NSCLC
  TGI: > 100 µM
DMS 273 small cell lung
  TGI: > 100 µM
XF 498 CNS
  TGI: > 100 µM

## CCOc1ccc(NCc2cc(OC)c(OC)c(OC)c2)cc1
DLD-1 colon
  TGI: > 100 µM
LXFL 529 NSCLC
  GI50: 0.839 µM and 2.67 µM
  TGI: > 100 µM
MDA-MB-435
  GI50: 0.0789 µM and 0.0919 µM
  TGI: > 100 µM
DMS 273 small cell lung
  GI50: 0.296 µM and 0.821 µM
  TGI: > 100 µM
MDA-N
  GI50: 0.565 µM and 0.446 µM
  TGI: > 100 µM
DMS 114 small cell lung
  TGI: 3.17 µM and 20 µM
BT-549 breast
  TGI: > 100 µM
XF 498 CNS
  GI50: 9.37 µM and 3 µM
  TGI: > 95.6 µM and 62 µM

## Cc1cc2c3ccccc3n(C)c2c2c1C(=O)C=CC2=O
DLD-1 colon
  TGI: 27 µM
LXFL 529 NSCLC
  TGI: 8.98 µM
MDA-MB-435
  TGI: 45.2 µM
DMS 273 small cell lung
  TGI: 29.1 µM
MDA-N
  TGI: 25.5 µM
DMS 114 small cell lung
  TGI: 13 µM
BT-549 breast
  TGI: 46.4 µM
XF 498 CNS
  TGI: 31.3 µM

## C=C1CC[C@@H]2[C@](C)(COC(C)=O)[C@H](OC(C)=O)CC[C@@]2(C)[C@@H]1CC(Nc1ccc(S(=O)(=O)Nc2nccc(C)n2)cc1)C1=CCOC1=O (some centres undefined)
MDA-MB-435
  GI50: 2.92 µM
  TGI: 10.4 µM
BT-549 breast
  GI50: 2.3 µM
  TGI: 5.61 µM

## Fc1ccc2[nH]c3c(NCCCN4CCOCC4)ncnc3c2c1
MDA-MB-435
  GI50: 51 µM
  TGI: > 100 µM
BT-549 breast
  GI50: 22.5 µM
  TGI: 99.4 µM

## CCOC(=O)C(=O)Nc1c(C)cccc1C
DLD-1 colon
  TGI: > 100 µM
LXFL 529 NSCLC
  TGI: > 100 µM
DMS 273 small cell lung
  TGI: > 100 µM
DMS 114 small cell lung
  TGI: > 100 µM
XF 498 CNS
  TGI: > 100 µM
